Experimental data: patent US11479604B2, “Immunomodulatory peptides and methods for modulating the immune system in a subject” (Recepta Biopharma S.A., priority 2017, dated 2022)

Legend:
[1] = tested on: B16F10-Nex2 melanoma cells; experiment: Therapeutic adoptive transfer of peptide-stimulated dendritic cells, metastatic melanoma; format: in vivo, syngeneic mice; conditions: DCs administered 8 days after melanoma challenge; compared to unstimulated or Rb10A1 treated DCs
Text: DCs were inoculated s.c. in syngeneic mice, 8 days after the melanoma tumor cell challenge. The B16F10-Nex2 cell lysate was not used to prime DCs in this assay to avoid excess tumor antigen derived from tumor cell lysis in vivo, and a tolerogenic response. Lung nodules of melanoma cells injected i.v. and formed after 7 days and after 12 days, from 3 independent experiments were combined to represent colonization clusters for comparison with the therapeutic experiment of FIG. 6C.

[2] = tested on: T lymphocytes of lungs, spleen and lymph nodes; experiment: Flow cytometry of Treg, T-CD4+ and T-CD8+ cells after prophylactic DC protocol; format: in vivo, mice
Method: On day 14, mice were inoculated i.v. with B16F10.Nex2 melanoma tumor cells and on day 29, lungs, spleen and cervical and axillary lymph nodes were examined for CD3+ cells, and the proportion of T-CD4+ and T-CD8+ cells.
The lungs were incubated with 2 mg/ml of collagenase for 40 min at 37° C. before maceration. The cell suspension was incubated with cold hemolytic buffer for 1 min and then centrifuged. The pellet was suspended with RPMI medium and counted. 1×10^6 Cells of each group were processed and stained using the Treg Detection Kit (Miltenyi Biotec, Cambridge, USA). Lymphocytes were characterized using anti-CD4 (FITC), anti-CD25 (PE) and anti-Foxp3 (APC). Samples were analyzed by flow cytometry using FACSCantoII (Becton Dickinson, San Jose, Calif., USA). Acquired data were analyzed using the FlowJo V10 (TreeStar Inc., Ashland, Oreg., USA). The percentages of Foxp3^+ in CD4^+CD25^+ lymphocytes are indicated.
The cell suspension was incubated with cold hemolytic buffer for 1 min and then centrifuged. The pellet was suspended with RPMI medium and counted. 1×10^6 Cells of each group were stained with anti-CD3 (PE) and anti-CD4 (FITC) or anti-CD3 (PE) and anti-CD8 (FITC). All antibodies used were purchase from Miltenyi Biotec, Cambridge, USA. Samples were analyzed by flow cytometry using FACSCantoII (Becton Dickinson, San Jose, Calif., USA). Acquired data were analyzed using the FlowJo V10 (TreeStar Inc., Ashland, Oreg., USA). The percentages of CD4^+ or CD8^+ in CD3^+ lymphocytes are indicated.

[3] = tested on: CD11c+ cells; experiment: TGF-beta1 ELISA of CD11c+ cells from lymphoid organs of melanoma-bearing treated mice; format: in vivo, C57Bl6 mice; conditions: 300 μg/dose i.p., day 17
Method: Animals were sacrificed on day 17 and their lungs, cervical and axillary lymph nodes and spleen were processed for examination. Lymph nodes and spleen were macerated separately, DMEM was added and passed through a cell strainer. CD11c+ cells were isolated using mouse CD11c+ beads and magnetic sorting. Cells were suspended in R10 medium and plated in […] at 10^6 cells/well. Cells were incubated for 24 h with or without tumor cell lysate (B16F10 stimulus). The supernatant was used in a TGF-beta1 ELISA test.

[4] = tested on: B16F10-Nex2 cells; experiment: Anti-melanoma antibodies in sera of treated mice; format: in vivo; conditions: 1/5 diluted sera; BSA treated or untreated tumor cells
[5] = tested on: human monocyte-derived dendritic cells (mo-DC); experiment: Membrane phenotype of human mo-DC from healthy donors; format: cell-based
Method: (§1) Peripheral blood mononuclear cells (PBMCs) were isolated by centrifugation over Ficoll-Paque Plus (GE Healthcare). After a 2 h-incubation in plastic 6-well plates, non-adherent cells were removed from culture and adherent cells (monocytes) were cultivated for 7 days in RPMI-1640 culture medium (Gibco, Grand Island, N.Y., USA), supplemented with 10% FCS (Gibco) plus antibiotic-antimycotic (Gibco) and in the presence of GM-CSF (50 ng/ml—Peprotech, Mexico) and IL-4 (50 ng/ml—Peprotech). At day 5 of culture TNF-α (50 ng/ml; Peprotech, Mexico) was added for mo-DC maturation.
(§2) Human cells were analyzed in a similar manner, but staining was performed in BSA-PBS, without EDTA. Antibodies against CD11c, CD14, CD80, CD83, CD86, HLA-ABC, HLA-DR, CCR7, PD-L1, conjugated with different fluorochromes and live/dead labeling (Molecular Probes, Oregon, USA) were used. Acquisition was performed in a FACSCanto II analyzer (BD Biosciences) and analyzed with the FlowJo Software X.10.07r2 (Tree Star).

[6] = tested on: mo-DC obtained from cancer patients' monocytes; experiment: Surface phenotype of mo-DC from cancer patients; format: cell-based, human
Method: as §1, §2
(§3) Since it is well known that mo-DC from cancer patients can be functionally biased, but are not always so, the patients were separated into two groups, according to their mo-DC ability to induce allogeneic T cell proliferation. Patients whose mo-DC induced less than 35% of the phytohemagglutinin A (PHA)-induced response constituted one group (“defective”) and those whose mo-DC induced a response higher than 35% of the PHA response, the other (“normal”).

[7] = tested on: mo-DC obtained from cancer patients' monocytes; experiment: Allogeneic T cell proliferation induced by cancer patients' mo-DC; format: cell-based, human
Method: Mo-DC were co-cultured with allogeneic lymphocytes (DC:Ly=1:30) to evaluate their ability to induce lymphocyte proliferation. This was measured by carboxyfluorescein succinimidyl ester (CFSE—Molecular Probes) dilution and activation measured by correlation among CD4/CD25 and Foxp3 expression (Clavijo-Salomon et al., 2016).
as §3

[8] = tested on: LPS stimulated DCs characterized by CD11c+ MHC-II+; experiment: Co-stimulatory markers of LPS stimulated murine bone-marrow DCs; format: cell-based
Text: Rb9 immunomodulation of murine bone-marrow dendritic cells (DCs) was also examined focusing on co-stimulatory markers.

[9] = prophylactic protocol with peptide-stimulated DCs

[CARGETARATFAYWGQGC], NH2 (C-C) [Rb9] was tested, and the “protection by peptide-stimulated DCs (lung nodules)” value [1] was “significant protection”, the “T-CD4+ and T-CD8+ effector cells” value [2, 9] was “increased T-CD4+ and T-CD8+ effector cells” and the “Tregs (FoxP3+)” value [2, 9] was “reduced Tregs”. The “proportion of T-CD8+ to T-CD4+ cells” value ([2]; spleen and lymph nodes (except lungs), day 29, DCs stimulated by peptide) was “T-CD8+ cells greatly predominated over T-CD4+ effector cells”, the “TGF-beta in tumor-lysate stimulated CD11c+ cells from the spleen” value [3] was “increased” and the “TGF-beta secreted by lymph node CD11c+ cells” value ([3]; vs vehicle (PBS) control cells stimulated by melanoma lysate) was “greatly reduced”. The “reactivity of sera with B16F10-Nex2 cells, i.d. relative to i.p. administration” value [4] was 4-5 times, the “expression of activation markers on immature mo-DC” value ([5]; 50 μg/mL at day 5, analysis 2 days later) was “enhanced the expression of activation markers” and the “expression of maturation markers on mo-DC with TNF-alpha” value ([5]; 50 μg/mL peptide + TNF-alpha 50 ng/mL at day 5) was “further enhancing the expression of maturation markers”. For the same substance, the “effects on surface phenotype of cancer patients' mo-DC” value ([6]; all patients) was “heterogeneous”, the “effect on phenotype (differentiation, maturation) of "defective" mo-DC” value ([6]; patients whose mo-DC induced less than 35% of the PHA-induced response) was “clearly affected the phenotype” and the “effect on phenotype of "normal" mo-DC” value ([6]; patients whose mo-DC induced more than 35% of the PHA response) was “little effect”. The “ability of "defective" mo-DC to induce allogeneic T cell proliferation” value [7] was “enhanced the ability”, the “lympho-stimulatory activity of "normal" mo-DC” value [7] was “inhibited the lympho-stimulatory activity” and the CD40 expression [8] was “regulated CD40 expression”. The “expression of CD80 and CD86” value ([8]; Rb9 mainly at 50 μg/ml) was “significantly stimulated”.
